Tests used:
Experiment in all cases: relative viability (nuclei count vs DMSO), 5 days (fraction); higher = more cells survive
[1] = compound: C1=CC(=CC=C1NC(=S)NNC2=C(C=C(C=C2[N+](=O)[O-])C(F)(F)F)[N+](=O)[O-])F [Kobe2602] + NC(=O)Nc1cc(-c2cccc(F)c2)sc1C(=O)N[C@H]1CCCNC1 [AZD7762] (partner 0.2 µM)
Summary of the method: (§1)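 Nuclei were stained with Hoechst during a one-step fixation (final 0.05% Triton X-100, 1% formaldehyde, 1 ug/ml Hoechst) carried out 5 days after dosing, then counted on 4× images. The cells, lung cancer lines in 1536-well plates, had been dosed by pin tool the day after seeding with one drug alone or a fixed anchor-drug dose plus five library-drug doses (not always all listed) in √10 steps. Relative viability is the nuclei count in treated wells divided by that in vehicle wells, and each value is the median of duplicate plates.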

[2] = compound: O[C@@H](COc1cccc2ncccc12)CN1CCN([C@@H]2c3ccccc3[C@@H]3[C@H](c4ccccc42)C3(F)F)CC1 [Zosuquidar] + CC(=O)Nc1cccc(-n2c(=O)n(C3CC3)c(=O)c3c(Nc4ccc(I)cc4F)n(C)c(=O)c(C)c32)c1 [Trametinib] (partner 0.02 µM)
Summary of the method: as §1

[3] = compound: O[C@@H](COc1cccc2ncccc12)CN1CCN([C@@H]2c3ccccc3[C@@H]3[C@H](c4ccccc42)C3(F)F)CC1 [Zosuquidar] + O=C(c1cc(Cc2n[nH]c(=O)c3ccccc23)ccc1F)N1CCN(C(=O)C2CC2)CC1 [Olaparib] (partner 8 µM)
Summary of the method: as §1

[4] = compound: C1=CC(=CC=C1NC(=S)NNC2=C(C=C(C=C2[N+](=O)[O-])C(F)(F)F)[N+](=O)[O-])F [Kobe2602] + CS(=O)(=O)CCNCc1ccc(-c2ccc3ncnc(Nc4ccc(OCc5cccc(F)c5)c(Cl)c4)c3c2)o1 [Lapatinib] (partner 2 µM)
Summary of the method: as §1

Row | Cell Line | relative viability ([1]; first compound 0.2 µM) | relative viability ([1]; first compound 0.6325 µM) | relative viability ([1]; first compound 2 µM) | relative viability ([1]; first compound 6.325 µM) | relative viability ([1]; first compound 20 µM) | relative viability ([2]; first compound 0.01 µM) | relative viability ([2]; first compound 0.03162 µM) | relative viability ([2]; first compound 0.1 µM) | relative viability ([2]; first compound 0.3162 µM) | relative viability ([2]; first compound 1 µM) | relative viability ([3]; first compound 0.01 µM) | relative viability ([3]; first compound 0.03162 µM) | relative viability ([3]; first compound 0.1 µM) | relative viability ([3]; first compound 0.3162 µM) | relative viability ([3]; first compound 1 µM) | relative viability ([4]; first compound 0.2 µM) | relative viability ([4]; first compound 0.6325 µM) | relative viability ([4]; first compound 2 µM) | relative viability ([4]; first compound 6.325 µM) | relative viability ([4]; first compound 20 µM)
1 | NCI-H1648 | 0.741 | 0.656 | 0.586 | 0.624 | 0.66 | 0.479 | 0.454 | 0.465 | 0.469 | 0.408 | 0.5 | 0.908 | 0.614 | 0.799 | 0.877 | – | – | – | – | –
2 | NCI-H1650 | – | – | – | – | – | 0.488 | 0.577 | 0.702 | 0.661 | 0.601 | 0.95 | 0.812 | 0.725 | 0.714 | 0.742 | 0.833 | 1.07 | 0.773 | 0.941 | 0.875
3 | NCI-H1703 | – | 0.13 | 0.111 | – | 0.173 | – | – | – | – | – | 0.413 | 0.421 | 0.394 | 0.858 | 0.451 | 0.903 | 0.975 | 0.925 | 0.982 | 0.694
4 | NCI-H2009 | – | – | – | – | – | 0.273 | 0.208 | 0.239 | 0.285 | 0.263 | 0.631 | 0.611 | 0.684 | 0.639 | 0.65 | 0.878 | 1.14 | 0.895 | 1.04 | 0.871
5 | NCI-H2023 | – | – | – | – | – | 0.595 | 0.669 | 0.574 | 0.702 | 0.596 | 0.498 | 0.549 | 0.52 | 0.485 | 0.477 | 0.833 | 0.914 | 0.811 | 0.815 | 0.739
6 | NCI-H2228 | – | – | – | – | – | 0.438 | 0.441 | 0.423 | 0.57 | 0.505 | 0.626 | 0.51 | 0.61 | 0.64 | 0.936 | 1.08 | 1.02 | 0.985 | 1.12 | 1.75
7 | NCI-H2342 | 0.47 | 0.448 | 0.704 | 0.461 | 0.655 | 0.805 | 0.975 | 0.757 | 0.873 | 0.957 | 0.459 | 0.544 | 0.421 | 0.501 | 0.439 | – | – | – | – | –
8 | SK-LU-1 | – | – | – | – | – | 0.506 | 0.578 | 0.488 | 0.489 | 0.519 | 0.517 | 0.535 | 0.485 | 0.531 | 0.435 | 0.859 | 0.88 | 0.92 | 0.859 | 0.817
9 | SK-MES-1 | – | – | – | – | – | 0.616 | 0.494 | 0.535 | 0.563 | 0.549 | 0.707 | 0.739 | 0.829 | 0.73 | 0.723 | 0.465 | 0.488 | 0.427 | 0.436 | 0.464
10 | SW 900 | 0.7 | 0.551 | 0.496 | 0.657 | 0.595 | 0.666 | 0.715 | – | 1.05 | 0.988 | 0.853 | 0.93 | – | 1.06 | 0.838 | – | – | – | – | –
11 | SW 1573 | – | – | – | – | – | 0.613 | 0.605 | 0.549 | 0.628 | 0.544 | 0.427 | 0.357 | 0.544 | 0.471 | 0.446 | 1.34 | 1.25 | 1.05 | 1.1 | 1.14
